Experimental data from patent US5891917A, “Certain acrylonitrile-sulfonamide derivatives” (Sugen, Inc., priority 1997, dated 1999).
Where two headings read alike, the source gives them in different places.

Experiments:
IGF-1R = molecular target: T1, IGF-1R (Homo sapiens, UniProt P08069); assay: Cellular IGF-1 Receptor ELISA; type: cell-based; settings: 3T3/IGF-1R cells, 20 nM IGF-1
T1 construct: expressed in transfected cells; host or cells: 3T3/IGF-1R (mouse NIH 3T3 line overexpressing IGF-1R)
Experimental: Cellular IGF-1 Receptor ELISA (Version I)
(1). The cell line used in this assay is 3T3/IGF-1R, a cell line which overexpresses IGF-1 Receptor.
(2). 3T3/IGF-1R is grown in an incubator with 5% CO2 at 37° C. The growth media is DMEM+10% FBS (heat inactivated)+2mM L-Glutamine.
(3). For ELISA plate coating, the anti-IGF-1R antibody named 17-69 is used. Antibodies are purified by the Enzymology Lab, SUGEN, Inc.
(10). Insulin-like growth factor-1 from Promega (Cat# G5111).
(11). Polyclonal antiserum Anti-phosphotyrosine:
(1). The cells, grown in tissue culture dish (10 cm, Corning 25020-100) to 80-90% confluence, are harvested with Trypsin-EDTA (0.25%, 0.5 ml/D-100, GIBCO).
(2). Resuspend the cells in fresh DMEM +10% FBS+2 mM L-Glutamine, and transfer to 96-well tissue culture plate (Corning, 25806-96) at 20,000 cells/well (100 ul/well). Incubate for 1 day then replace medium to serum-free medium (90/ul) and incubate in 5% CO2 and 37° C. overnight.
(1). Coat the ELISA plate (Corning 25805-96) with Anti-IGF-1R Antibody at 0.5 ug/well in 100 ul PBS at least 2 hours. (2). Remove the coating solution, and replace with 100 ul Blocking Buffer, and shake for 30 minutes. Remove the blocking buffer and wash the plate just before adding lysate.
(1). The drugs are tested in serum-free condition.
(2). Dilute drug stock (in 100% DMSO) 1:10 with DMEM in 96-well poly-propylene plate, and transfer 10 ul/well of this solution to the cells to achieve final drug dilution 1:100, and final DMSO concentration of 1.0%. Incubate the cells in 5% CO2 at 37° C. for 2 hours.
(3). Prepare fresh cell lysis buffer (HNTG HNTG 2 ml EDTA 0.1 ml Na3VO4 0.1 ml Na4P2O7 0.1 ml H20 7.3 ml HNTG* 10 ml.
(4). After drug incubation for two hours, transfer 10 ul/well of 200nM IGF-1 Ligand in PBS to the cells (Final Conc=20 nM), and incubate at 5% CO2 at 37° C. for 10 minutes.
(5). Remove media and add 100 ul/well HNTG* and shake for 10 minutes. Look at cells under microscope to see if they are adequately lysed.
(6). Use a 12-channel pipette to scrape the cells from the plate, and homogenize the lysate by repeat aspiration and dispense. Transfer all the lysate to the antibody coated ELISA plate [V.2.(2)], and shake for 1 hour.
(7). Remove the lysate, wash the plate, transfer anti-pTyr (1:3,000 with TBST) 100 ul/well, and shake for 30 minutes.
(7). Remove anti-pTyr, wash the plate, transfer detection antibody (1:3,000 with TBST) 100 ul/well, and shake for 30 minutes.
(8). Remove detection antibody, wash the plate, and transfer fresh ABTS/H2O2 (1.2 ul H2O2 to 10 ml ABTS) 100 ul/well to the plate to start color development.
(9). Measure OD (410 nm) in Dynatec MR5000, which is connected to Ingres.

3T3/HER2 cells = assay: 3T3 Growth Assay (3T3/HER2); type: cell-based
From the text: The following examples illustrate the ability of the exemplary compounds to inhibit receptor tyrosine kinases, such as HER2 and/or EGFR. The following target cells were used for cellular kinase assays: NIH3T3 clone C7 (Honegger et al., supra) engineered to over-express human EGF receptor; NIH3T3 cells engineered to over-express a chimeric receptor containing the EGFR extracellular domain and the HER2 intracellular kinase domain; the human mammary carcinoma line BT474 (ATCC HTB2) expressing HER2; and the human glioblastoma line U1242 that expresses PDGFR-beta. Growth assays were carried out using human mammary epithelial SKBR3 (ATCC HTB30) cells (SKBR3 cells over-express HER2), SKOV3 (ATCC HTB77) human ovarian cancer cell line (SKOV3 cells also over-express HER2), A431 cells (A431 cells over-express EGFR) MCF7 human breast carcinoma cells, MCF7 cells overexpressing the HER2 kinase (MCF7-HER2), NIH3T3 cells, and NIH3T3 cells overexpressing the HER2 kinase (3T3-HER2.
The 3T3 growth assay was carried out as follows: […]
(1) HER2C7 (engineered to express HER2) and NIH3T3C7 (as the control) cells are used for this assay. NIH3T3C7 cells are seeded at 2500 cells/well, […] in 10% CS+2 mM GLN DMEM, in a 96 well plate; HER2C7 cells are seeded at 6000 cells/well, 100 μl/well in 2% FBS+2 mM GLN DMEM, in a 96 well plate. Cells are incubated at 37° C., 5% CO2 overnight to allow for cell attachment to the plate;
(2) The […] compound is added to the cells at day 2. The compounds are prepared in the appropriate growth medium (10% CS+2 mM) GLN DMEM for NIH3T3C7 cells; 2% FBS+2 mM GLN DMEM for HER2C7 cells) in a 96 well plate, and serially diluted. A total of 100 μl/well medium of the diluted compounds is added into the cells. The total volume of each well is 200 μl. Quadruplicates (wells) and 11 concentration points are applied to each compound tested.
(3) After the cells are treated with the compound for 4 days, the cells are washed with PBS and fixed with 200 μl/well ice-cold 10% TCA for one hour at 0°-5° C. condition.
(4) Remove TCA and rinse wells 5 times with deionized water. Dry plates upside down with paper towels. Stain cells with 0.4% SRB at 100 μl/well for 10 minutes.
(5) Pour off SRB and rinse plate 5 times with 1 % acetic acid. Dry plate completely.
(6) Solubilize the dye with 10 mM Tris-base at 100 μl/well for 10 minutes on a shaker.
(7) Read the plate at dual wavelengths at 570 nm and 630 nm on Dynatech Elisa plate reader.

[1] = read-out: Growth Data: 3T3/HER2 2% FBS
[2] = read-out: Growth Data: 3T3/HER2 10% FBS

T1 sequence (P08069 741-1367 limits assumed): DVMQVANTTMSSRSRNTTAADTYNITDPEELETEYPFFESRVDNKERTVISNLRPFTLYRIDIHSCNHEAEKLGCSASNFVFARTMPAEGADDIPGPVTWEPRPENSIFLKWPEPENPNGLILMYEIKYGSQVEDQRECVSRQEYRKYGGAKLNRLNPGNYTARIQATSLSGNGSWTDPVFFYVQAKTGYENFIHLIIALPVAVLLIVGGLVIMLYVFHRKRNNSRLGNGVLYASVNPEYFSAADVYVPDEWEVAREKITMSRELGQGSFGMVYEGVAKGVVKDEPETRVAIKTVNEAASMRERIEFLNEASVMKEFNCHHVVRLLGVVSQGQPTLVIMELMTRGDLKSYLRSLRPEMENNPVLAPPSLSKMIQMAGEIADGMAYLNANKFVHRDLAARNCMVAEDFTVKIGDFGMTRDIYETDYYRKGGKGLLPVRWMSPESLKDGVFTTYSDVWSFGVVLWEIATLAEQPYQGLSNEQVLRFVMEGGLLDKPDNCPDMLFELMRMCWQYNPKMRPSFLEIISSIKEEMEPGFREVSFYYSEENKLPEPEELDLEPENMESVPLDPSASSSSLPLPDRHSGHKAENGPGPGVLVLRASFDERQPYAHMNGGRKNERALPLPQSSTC
T1 sequence (P08069 31-736 partner limits assumed): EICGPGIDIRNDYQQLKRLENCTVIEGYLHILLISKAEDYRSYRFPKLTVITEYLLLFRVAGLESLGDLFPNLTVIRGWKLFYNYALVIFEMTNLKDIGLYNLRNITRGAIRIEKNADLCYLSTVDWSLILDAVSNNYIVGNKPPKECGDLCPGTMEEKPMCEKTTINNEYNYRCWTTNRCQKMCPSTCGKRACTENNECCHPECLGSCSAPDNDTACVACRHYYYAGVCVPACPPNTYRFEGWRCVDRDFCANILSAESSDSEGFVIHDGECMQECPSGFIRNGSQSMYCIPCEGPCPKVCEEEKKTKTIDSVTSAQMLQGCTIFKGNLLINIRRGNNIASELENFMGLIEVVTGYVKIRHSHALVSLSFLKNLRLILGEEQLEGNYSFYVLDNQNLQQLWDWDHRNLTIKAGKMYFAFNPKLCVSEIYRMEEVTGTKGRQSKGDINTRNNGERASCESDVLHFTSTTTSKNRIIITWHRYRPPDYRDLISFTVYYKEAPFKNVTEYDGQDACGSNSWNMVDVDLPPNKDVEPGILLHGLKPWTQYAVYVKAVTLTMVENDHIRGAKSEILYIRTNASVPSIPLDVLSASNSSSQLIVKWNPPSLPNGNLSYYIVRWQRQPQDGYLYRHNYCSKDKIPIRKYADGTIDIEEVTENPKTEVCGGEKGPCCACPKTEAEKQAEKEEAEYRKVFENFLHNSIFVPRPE

Row | IC50 (IGF-1R) [µM] | SMILES | IC50 (3T3/HER2 cells; [1]) [µM] | IC50 (3T3/HER2 cells; [2]) [µM]
1 | > 100 | CC(C)(C)c1cc(/C=C(\C#N)S(=O)(=O)c2ccsc2)cc(C(C)(C)C)c1O [Compound 746] | 7 | 40
2 | 69 | CC(C)c1cc(/C=C(\C#N)S(=O)(=O)/C(C#N)=C/c2cc(C(C)C)c(O)c(C(C)C)c2)cc(C(C)C)c1O [Compound 745] | – | –
3 | > 100 | Cc1cc(/C=C(\C#N)S(=O)(=O)c2ccccc2)cc(C)c1O [Compound 748] | > 100 | > 100
4 | > 100 | CC(C)(C)c1cc(/C=C(\C#N)S(=O)(=O)c2cccs2)cc(C(C)(C)C)c1O [Compound 742] | 7 | 38
5 | > 100 | CC(C)c1cc(/C=C(\C#N)S(=O)(=O)c2ccsc2)cc(C(C)C)c1O [Compound 738] | 45 | > 100
6 | 11.8 | CC(C)c1cc(/C=C(\C#N)S(=O)(=O)NCc2ccccc2)cc(C(C)C)c1O [Compound 732] | 15 | 95
7 | > 100 | CC(C)c1cc(/C=C(\C#N)S(=O)(=O)c2ccccn2)cc(C(C)C)c1O [Compound 747] | > 100 | > 100
8 | 93.9 | N#C/C(=C\c1ccc(O)cc1Cl)S(=O)(=O)NCCCc1ccccc1 [Compound 734] | 55 | > 100
9 | > 100 | N#C/C(=C\c1ccc(O)cc1Cl)S(=O)(=O)NCc1ccccc1 [Compound 733] | 60 | > 100
10 | 19 | CC(C)c1cc(/C=C(\C#N)S(=O)(=O)Cc2cccc(C(F)(F)F)c2)cc(C(C)C)c1O [Compound 736] | 18 | 55
11 | > 100 | N#C/C(=C\c1ccc(O)c(O)c1)S(=O)(=O)c1cccs1 [Compound 743, (E)-3-(3,4-Dihydroxyphenyl)-2-[(thien-2-yl)sulfonyl]acrylonitrile] | – | –
12 | 28.3 | CC(C)c1cc(/C=C(\C#N)S(=O)(=O)c2ccc(F)cc2)cc(C(C)C)c1O [Compound 741, (E)-3-(3,5-Diisopropyl-4-hydroxyphenyl)-2-(4-fluorophenylsulfonyl)acrylonitrile] | 15 | 75
13 | 29.2 | CC(C)c1cc(/C=C(\C#N)S(=O)(=O)c2ccccc2)cc(C(C)C)c1O [Compound 731] | 12 | 70
14 | > 100 | Cc1cc(/C=C(\C#N)S(=O)(=O)c2ccc(F)cc2)cc(C)c1O [Compound 744] | > 100 | > 100
15 | > 100 | Cc1cc(/C=C(\C#N)S(=O)(=O)Cc2cccc(C(F)(F)F)c2)cc(C)c1O [Compound 739] | – | –
16 | 93.5 | CC(C)c1cc(/C=C(\C#N)S(=O)(=O)c2cccs2)cc(C(C)C)c1O [Compound 737] | 40 | 90
17 | > 100 | CC(C)(C)c1cc(/C=C(\C#N)S(=O)(=O)c2ccc(F)cc2)cc(C(C)(C)C)c1O [Compound 740] | 3.8 | 20
18 | > 100 | CC(C)(C)c1cc(/C=C(\C#N)S(=O)(=O)Cc2cccc(C(F)(F)F)c2)cc(C(C)(C)C)c1O [Compound 735] | 5 | 22
